Legend:
Assay type in all cases: cell-based
[1] = test system: Actinomyces naeslundii JCM 8350; experiment: MIC, agar medium dilution method (Trypticase Soy Agar); conditions: (b) Actinomyces naeslundii, 37° C., 72 hours
Description: (§1) Test for Antibacterial Ability (Measurement of Minimum Inhibitory Concentration (MIC) Using an Agar Medium Dilution Method)
(§2) The samples shown below were dissolved in ethanol to prepare a serial twofold dilution stage and 100 μL of each was added to 10 mL of a sterilized agar medium (Trypticase Soy Agar (BBL)), which was then stirred sufficiently, then transferred to a 9-cm-diameter Petri dish and solidified at ambient temperature. 5 μL of a diluted test bacteria (shown below) solution was implanted in the Petri dish and cultured at 37° C. for 72 hours. After the culturing was finished, the growth state of the medium in this Petri dish was compared with that in a Petri dish (blank) containing no sample and the concentration of the sample in which the growth of bacteria was not seen was defined as MIC.

[2] = test system: Actionmyces viscosus JCM 8352; experiment: as above; conditions: (c) Actionmyces viscosus, 37° C., 72 hours
Description: as §1, §2

[3] = test system: Fusobacterium nuclestum JCM 6328; experiment: as above; conditions: (d) Fusobacterium nuclestum, 37° C., 72 hours
Description: as §1, §2

[4] = test system: Porphyromonas gingivalis JCM 8525; experiment: as above; conditions: (f) Porphyromonas gingivalis, 37° C., 72 hours
Description: as §1, §2

[5] = test system: Prevotella intermedia JCM 6322; experiment: as above; conditions: (e) Prevotella intermedia, 37° C., 72 hours
Description: as §1, §2

[6] = test system: Streptococcus mutans JCM 5175; experiment: as above; conditions: (a) Streptococcus mutans, 37° C., 72 hours
Description: as §1, §2

[7] = test system: Staphylococcus aureus ATCC6538; experiment: MIC and MBC, liquid medium dilution method (NYG medium), qualification method 2; conditions: method 2, liquid medium
Description: (§3) Measurements of MIC and Minimum Bactericidal Concentration (MBC) by Using a Liquid Medium Dilution Method
(§4) The serial twofold dilution solution of the sample is prepared in the same manner as in the agar medium dilution method. 30 μL of the sample solution having each concentration is added to 3 mL of a liquid medium (NYG medium), to which is further added 60 μL of a test bacteria solution and the medium is cultured at 30° C. for 48 hours.
(§5) A change of the turbidity of the medium is measured using a wavelength of 660 nm to find MIC. The media 60 μL each are taken out from a test tube in which no growth of the bacteria is found and implanted in 3 mL of a new medium and cultured for 48 hours. The minimum concentration at which no growth of the bacteria was observed is defined MBC.

[8] = test system: Staphylococcus aureus IAM12082; experiment: as above; conditions: method 2, liquid medium
Description: as §3, §4, §5

[9] = test system: Staphylococcus aureus; experiment: Conclusion from the measurement of MBC (liquid medium dilution method); conditions: from the results of the measurement of MBC (Table 4)
Description: as §3, §4, §5

[10] = test system: Bacillus subtilis PCI 219 IFO 3134; experiment: MIC, agar medium dilution method (Mueller Hinton medium), qualification test method 1; conditions: method 1, agar, 37° C., 72 hours
Description: as §2, with “Test for Antibacterial Ability (Measurement of Minimum Inhibitory Concentration (MIC) Using an Agar Medium Dilution Method) Measurement of Minimum Inhibitory Concentration (MIC) Using an Agar Medium Dilution Method The” for “The”, “(Mueller Hinton medium (Difco)),” for “(Trypticase Soy Agar (BBL)),”, “bacteria” for “bacteria (shown below)”, “minimum inhibitory concentration (MIC).” for “MIC.”

[11] = test system: Staphylococcus aureus 209P IAM 12082; experiment: as above; conditions: method 1, agar, 37° C., 72 hours
Description: as §2, with “Test for Antibacterial Ability (Measurement of Minimum Inhibitory Concentration (MIC) Using an Agar Medium Dilution Method) Measurement of Minimum Inhibitory Concentration (MIC) Using an Agar Medium Dilution Method The” for “The”, “(Mueller Hinton medium (Difco)),” for “(Trypticase Soy Agar (BBL)),”, “bacteria” for “bacteria (shown below)”, “minimum inhibitory concentration (MIC).” for “MIC.”

[12] = test system: Staphylococcus aureus ATCC 6538; experiment: as above; conditions: method 1, agar, 37° C., 72 hours
Description: as §2, with “Test for Antibacterial Ability (Measurement of Minimum Inhibitory Concentration (MIC) Using an Agar Medium Dilution Method) Measurement of Minimum Inhibitory Concentration (MIC) Using an Agar Medium Dilution Method The” for “The”, “(Mueller Hinton medium (Difco)),” for “(Trypticase Soy Agar (BBL)),”, “bacteria” for “bacteria (shown below)”, “minimum inhibitory concentration (MIC).” for “MIC.”

[13] = test system: Staphylococcus epidermides JCM 2414; experiment: MIC, agar medium dilution method (Mueller Hinton medium); conditions: (f) Staphylococcus epidermides, 37° C., 72 hours
Description: as §2, with “Test for Antibacterial Ability (Measurement of Minimum Inhibitory Concentration (MIC) Using an Agar Medium Dilution Method) The” for “The”, “samples” for “samples shown below”, “medium,” for “medium (Trypticase Soy Agar (BBL)),”, “bacteria” for “bacteria (shown below)”, “minimum inhibitory concentration (MIC). (f) Staphylococcus epidermides JCM 2414 (g) Corynebacterium minutissimum IFO 15361 • Mueller Hinton medium (Difco) in these cases Sample” for “MIC.”

[14] = test system: Corynebacterium minutissimum IFO 15361; experiment: as above; conditions: (g) Corynebacterium minutissimum, 37° C., 72 hours
Description: as §2, with “Test for Antibacterial Ability (Measurement of Minimum Inhibitory Concentration (MIC) Using an Agar Medium Dilution Method) The” for “The”, “samples” for “samples shown below”, “medium,” for “medium (Trypticase Soy Agar (BBL)),”, “bacteria” for “bacteria (shown below)”, “minimum inhibitory concentration (MIC). (g) Corynebacterium minutissimum IFO 15361 • Mueller Hinton medium (Difco) in these cases Sample” for “MIC.”

[15] = test system: Corynebacterium xerosis JCM 1324; experiment: as above; conditions: (d) Corynebacterium xerosis, 37° C., 72 hours
Description: as §2, with “Test for Antibacterial Ability (Measurement of Minimum Inhibitory Concentration (MIC) Using an Agar Medium Dilution Method) The” for “The”, “samples” for “samples shown below”, “medium,” for “medium (Trypticase Soy Agar (BBL)),”, “bacteria” for “bacteria (shown below)”, “minimum inhibitory concentration (MIC). (d) Corynebacterium xerosis JCM 1324 (g) Corynebacterium minutissimum IFO 15361 • Mueller Hinton medium (Difco) in these cases Sample” for “MIC.”

[16] = test system: Malassezia furfur IFO 0656; experiment: as above; conditions: (e) Malassezia furfur, 37° C., 72 hours
Description: as §2, with “Test for Antibacterial Ability (Measurement of Minimum Inhibitory Concentration (MIC) Using an Agar Medium Dilution Method) The” for “The”, “samples” for “samples shown below”, “medium,” for “medium (Trypticase Soy Agar (BBL)),”, “bacteria” for “bacteria (shown below)”, “minimum inhibitory concentration (MIC). (e) Malassezia furfur IFO 0656 (g) Corynebacterium minutissimum IFO 15361 • Mueller Hinton medium (Difco) in these cases Sample” for “MIC.”

[17] = test system: Bacillus subtilis PCI 219; experiment: MIC, agar medium dilution method; conditions: 37° C., 72 hours
Description: as §2, with “Test for Antibacterial Ability (Measurement of Minimum Inhibitory Concentration (MIC) Using an Agar Medium Dilution Method) The” for “The”, “samples” for “samples shown below”, “medium,” for “medium (Trypticase Soy Agar (BBL)),”, “bacteria” for “bacteria (shown below)”, “minimum inhibitory concentration (MIC).” for “MIC.”

[18] = test system: Propionibacterium acnes JCM 6473; experiment: MIC, agar medium dilution method (Trypticase Soy Agar); conditions: (a) Propionibacterium acnes JCM 6473, 37° C., 72 hours
Description: as §2, with “Test for Antibacterial Ability (Measurement of Minimum Inhibitory Concentration (MIC) Using an Agar Medium Dilution Method) The” for “The”, “samples” for “samples shown below”, “medium,” for “medium (Trypticase Soy Agar (BBL)),”, “bacteria” for “bacteria (shown below)”, “minimum inhibitory concentration (MIC). (a) Propionibacterium acnes JCM 6473 (c) Bacteriodes fragilis GAI 5560 • Trypticase Soy Agar (BBL) in these cases” for “MIC.”

[19] = test system: Propionibacterium acnes ATCC 6919; experiment: as above; conditions: (b) Propionibacterium acnes ATCC 6919, 37° C., 72 hours
Description: as §2, with “Test for Antibacterial Ability (Measurement of Minimum Inhibitory Concentration (MIC) Using an Agar Medium Dilution Method) The” for “The”, “samples” for “samples shown below”, “medium,” for “medium (Trypticase Soy Agar (BBL)),”, “bacteria” for “bacteria (shown below)”, “minimum inhibitory concentration (MIC). (b) Propionibacterium acnes ATCC 6919 (c) Bacteriodes fragilis GAI 5560 • Trypticase Soy Agar (BBL) in these cases” for “MIC.”

[20] = test system: Bacteriodes fragilis GAI 5560; experiment: as above; conditions: (c) Bacteriodes fragilis, 37° C., 72 hours
Description: as §2, with “Test for Antibacterial Ability (Measurement of Minimum Inhibitory Concentration (MIC) Using an Agar Medium Dilution Method) The” for “The”, “samples” for “samples shown below”, “medium,” for “medium (Trypticase Soy Agar (BBL)),”, “bacteria” for “bacteria (shown below)”, “minimum inhibitory concentration (MIC). (c) Bacteriodes fragilis GAI 5560 • Trypticase Soy Agar (BBL) in these cases” for “MIC.”

Q: Which results are given for `Oc1cc(Cl)ccc1Oc1ccc(Cl)cc1Cl` [Sample C-1, Trichlosane]?
A: MIC [1]: 3.1 ppm; MIC [2]: 3.1 ppm; MIC [3]: 3.1 ppm; MIC [4]: 3.1 ppm; MIC [5]: 3.1 ppm; MIC [6]: 6.3 ppm; MBC [7]: 1.95 ppm; MIC ([7]; 30° C., 48 hours): 0.977 ppm; MBC [8]: 0.977 ppm; MIC ([8]; 30° C., 48 hours): 0.244 ppm; bactericidal or bacteriostatic action [9]: strong bactericidal activity

Q: `CCCCOC(=O)c1ccc(O)cc1` [Sample C-2, Butylparabene] was tested. Which MIC [1] did it give?
A: 100 ppm

Q: What about the MIC [2] of the same compound?
A: 100 ppm

Q: And the MIC [3]?
A: 100 ppm

Q: What about the MIC [4] of the same compound?
A: 50 ppm

Q: And the MIC [5]?
A: 100 ppm

Q: And the MIC [6]?
A: 200 ppm

Q: What about the MIC [10] of the same compound?
A: 200 ppm

Q: What about the MIC [11] of the same compound?
A: 100 ppm

Q: What about the MIC [12] of the same compound?
A: 200 ppm

Q: And the “Minimum inhibitory concentration (MIC)” value [13]?
A: 200 ppm

Q: What about the “Minimum inhibitory concentration (MIC)” value [14] of the same compound?
A: 200 ppm

Q: What about the “Minimum inhibitory concentration (MIC)” value [15] of the same compound?
A: 50 ppm

Q: What about the “Minimum inhibitory concentration (MIC)” value [16] of the same compound?
A: 100 ppm

Q: And the “Minimum inhibitory concentration (MIC)” value [17]?
A: 200 ppm

Q: What about the “Minimum inhibitory concentration (MIC)” value [18] of the same compound?
A: 100 ppm

Q: And the “Minimum inhibitory concentration (MIC)” value [19]?
A: 100 ppm

Q: What about the “Minimum inhibitory concentration (MIC)” value [20] of the same compound?
A: 50 ppm

— patent publication US7060726B2, “Antibacterial agent” (Takasago International Corporation, priority 2001, dated 2006)
